The test system of assay [1] is 5' FAM, 3' TAMRA labelled hTERC rG4. Put plainly: FRET melting assay. The class given is binding, human. Particulars: increasing peptide concentration, 0-2 μM; 0.2 μM rG4. On the procedure: FRET-melting assay was performed with 5′ FAM, 3′ TAMRA labelled hTERC rG4. The oligonucleotides were prepared at 0.2 μM, and the peptides were prepared at 0, 0.2, 0.4, 1 or 2 μM final concentration. The samples were excited at 492 nm and the emission spectra were detected at 516 nm in a buffer containing 10 mM lithium cacodylate and 1 mM KCl. The rG4 was heated at 95° C. for 5 minutes and cooled down in room temperature to refold for 10 minutes before adding the peptides. The signal was monitored by real-time PCR detection system with a procedure of 30 minutes at 25° C., then an increase of 0.5° C. every minute until 95° C. Each experimental condition was tested in three duplicates in a volume of 25 μL for each sample. The data were blanked, averaged and smoothed over 2° C. The plot was carried out by software.

Assay [2] relates to rG4s, dG4s (c-MYC, c-kit1, HRAS-1, hTelo) and non-G4 targets (scramble G-rich sequence, DNA hairpin, RNA hairpin). Put plainly: MST binding selectivity test with different rG4s, dG4s and non-G4 targets. The settings on record: data not shown. As to the method:
(§1) The RNA was subjected to heat treatment at 75° C. for 5 minutes followed by cooling down to room temperature for 10 minutes for renaturation purposes. For binding affinity and selectivity test, reaction mixtures containing 50 nM FAM-labelled RNA, 150 mM KCl, 1 mM MgCl2, 25 mM Tris-HCl (pH 7.5) and varying concentrations of peptide were prepared and incubated at 37° C. for 30 minutes. The samples were then loaded into MST capillary tubes, and the measurements were taken at 25° C. using blue light mode and the binding affinity mode. The data obtained from these measurements were analyzed using MST nano temper analysis (nta) analysis software. The curve fitting and dissociation constant (Kd) determination were carried out by software using the one site-specific binding model.

Assay [3] concerns the target hTERC rG4. Put plainly: Microscale thermophoresis (MST) binding assay. Further details: species or system human. Particulars: 50 nM FAM-labelled RNA, 150 mM KCl. On the procedure:
as §1
(In general: Microscale thermophoresis detects binding through changes in fluorescence in a small temperature gradient.)

The test system of assay [4] is hTERC rG4 WT construct in HeLa cells. Put plainly: Dual-luciferase reporter gene assay, hTERC rG4 WT construct. The class given is cell-based, human. The settings on record: peptide 0, 100, 200 nM, 48 hours. On the procedure:
(§2) Wild-type or mutant hTERC rG4 construct was inserted into the HSV-TK promoter at the SacII restriction enzyme site of firefly/renilla dual luciferase reporter vector, psiCHECK-2. Then, wild-type or mutant reporter plasmid was transfected into Hela cells together with peptides (0, 100, 200 nM) using nucleofector. Each well of the 96-well black-wall optical plate was transfected with 30 ng plasmids. The luciferase reporter gene assays were performed after 48 hours of incubation using the dual-luciferase reporter assay kit. The microplate reader was used to measure luciferase activities with renilla luciferase serving as an internal control. The ratio of firefly to renilla was calculated to analyze the data. Three replicates were performed for each measurement, and the error bar was plotted based on the standard deviation. The P-value was calculated using two-tailed unpaired Student's t-tests to evaluate the significance of the samples.
After confirming that the rG4-targeting peptides can interact with rG4 structures in live cells, their effect on modulating rG4-mediated gene expression was examined in the example. Dual luciferase reporter gene assay was conducted in HeLa cells, in which hTERC rG4 WT motif (SEQ ID NO: 12) or hTERC rG4 MUT motif (SEQ ID NO: 13) was inserted in the 5′ untranslated region (5′ UTR) of the renilla luciferase gene region separately, and the firefly luciferase gene was used as a normalized gene (FIG. 1).
Background: In a reporter assay the amount or activity of a reporter protein is the signal.

In assay [5] the test system is hTERC rG4 MUT construct in HeLa cells. Put plainly: Dual-luciferase reporter gene assay, hTERC rG4 MUT construct. Format: cell-based, human. Particulars: peptide 0, 100, 200 nM, 48 hours. On the procedure: as §2
After confirming that the rG4-targeting peptides can interact with rG4 structures in live cells, their effect on modulating rG4-mediated gene expression was examined in the example. […]

The test system of assay [6] is hTERC rG4 WT in HeLa cells. Put plainly: Cell imaging, co-transfection with hTERC rG4 WT. The class given is cell-based, human. Particulars: 5 hours post-transfection, data not shown. On the procedure: (§3) HeLa cells were seeded on a 3.5 cm confocal dish 1 day before transfection. FAM-labelled hTERC rG4 was heated to 75° C. for 5 minutes, annealed at 25° C., and then co-transfected with TAMRA-labelled peptide using LIPOFECTAMINE® 2000. Five hours post-transfection, the cells were stained with 50 nM deep red-fluorescent dye (labeling and tracking acidic organelles in live cells) for 30 minutes and 5 μg/mL Hoechst dye (staining nucleic acid) for 15 minutes. The images were monitored using a laser confocal scanning microscope. Fluorescence statistics of cells were analyzed using software.

Assay [7] deals with hTERC rG4 wild-type (WT). Put plainly: Filter binding assay, hTERC rG4 wild-type. Set-up: species or system human. The settings on record: data not shown. As to the method: (§4) In the binding affinity and selectivity tests, reaction mixtures containing 5 nM biotin-labeled RNA, 25 mM Tris-HCl (pH 7.5), 150 mM KCl, 1 mM MgCl2 and varying concentrations of peptides were prepared in 50 μL and incubated at 37° C. for 30 minutes before loaded onto an apparatus containing a nitrocellulose membrane (top) and nylon membrane (bottom). The nylon membrane was rinsed with 0.5× Tris-borate-EDTA (TBE) buffer for 5 minutes, and the nitrocellulose membrane was rinsed with 0.5 M KOH for 15 minutes at 4° C. and then rinsed with 0.5×TBE buffer for one time prior to use. The membranes were washed with binding buffer for three times before and after applying the sample to the apparatus. The crosslinking step was carried out by exposing the membranes to UV irradiation at 254 nm, 120,000 microjoules/cm^2 for 5 minutes. The results were detected using a chemiluminescent nucleic acid detection module kit, and the scanned by an imaging system.

Assay [8] deals with hTERC rG4 mutant (MUT). Put plainly: Filter binding assay, hTERC rG4 mutant. Further details: species or system human. Particulars: data not shown. As to the method:
as §4

The subject of assay [9] is hTERC rG4 MUT in HeLa cells. Put plainly: Cell imaging, co-transfection with hTERC rG4 MUT. Format: cell-based, human. Particulars: 5 hours post-transfection, data not shown. As to the method: as §3
Assay [10] deals with hTERC rG4. Put plainly: Ligand-enhanced fluorescence assay. Further details: species or system human. The settings on record: 100 nM hTERC rG4. On the procedure:
HTERC rG4 (100 nM) in Tris-HCl buffer (25 mM Tris-HCl, pH 7.5, 150 mM KCl, and 1 mM MgCl2) was heated at 95° C. for 3 minutes and cooled down at 25° C. for 10 minutes. 10 μL of the peptide and rG4 mixture were incubated for 30 minutes at room temperature. Fluorescence spectroscopy was performed using a microplate reader in 384 well plate. The samples were excited at 394 nm and the emission spectra were detected at 610 nm. The plot was carried out by software.

The record followed here is US20240255515A1, “G4-SPECIFIC PEPTIDES AND METHODS OF IDENTIFYING THE SAME” (CITY UNIVERSITY OF HONG KONG, priority 2023, published 2024).

Read-outs that look alike come from different tables or passages of the source.

Regarding “de novo G4-binding peptide with amino acid sequence TKRKHPHRRKYR (SEQ ID NO: 1) [pep11]”, the “melting temperature of hTERC rG4” value in assay [1] is “Higher melting temperatures”. The “binding selectivity among rG4s, dG4s and non-G4s” value in [2] is on record as “only rG4s exhibited observable binding”. For the same substance, in [3] (read-out: Kd, binding to hTERC rG4), the Kd (as a rule, the free concentration of one partner at which half of the binding sites on the other are occupied at equilibrium, for simple one-to-one binding) was 1370 ± 220 nM.

For the substance “pep71: negative control peptide with amino acid sequence AHPLTKPPKYHH (SEQ ID NO: 5) [reference compound]”, the “normalized luciferase activity, WT construct” value in assay [4] is recorded as “did not impact”. Besides, in [5], the “normalized luciferase activity, MUT construct” value is reported as “did not impact”.

Regarding “two pep11 domains linked by (GTGSGA)3: TKRKHPHRRKYRGTGSGAGTGSGAGTGSGATKRKHPHRRKYR (SEQ ID NO: 3) [tandem pep11]”, in assay [4], the “normalized luciferase activity, WT construct” value was “the inhibition extended with increasing concentration”. The “colocalization of TAMRA-labelled peptide with hTERC rG4 WT foci in live cells” value in assay [6] is on record as “clear colocalization of TAMRA signals with the fluorescent foci”. Besides, in [7], the “binding to hTERC rG4 WT” value is given as “bound to hTERC rG4 WT”. Also, the “melting temperature of hTERC rG4” value in assay [1] is “Higher melting temperatures”. Further, the “binding selectivity among rG4s, dG4s and non-G4s” value in [2] is “bound to other rG4s but not to non-G4s and weakly to dG4s”. In assay [8], the “binding to hTERC rG4 MUT” value was “not MUT”. Further, the Kd in [3] (read-out: Kd, binding affinity to hTERC rG4) is 449 ± 62 nM. For the same substance, the “foci in cells transfected with hTERC rG4 MUT” value in [9] is “few foci were observed”.

In the case of “RHAU53: positive control peptide reported to interact with rG4s; sequence SMHPGHLKGREIGMWYAKKQGQKNKEAERQERAVVHMDERREEQIVQLLNSVQA K (SEQ ID NO: 4) (SMHPGHLKGREIGMWYAKKQGQKNKEAERQERAVVHMDERREEQIVQLLNSVQAK)”, the “normalized luciferase activity, WT construct” value in assay [4] was “effects of both tandem and cyclic pep11 were comparable to that of RHAU53”. For the same substance, the “fluorescence signal / conformational change of G4 upon peptide binding” value in assay [10] is listed as “exhibited a similar result”.
